# Measured values: patent publication US8710233B2 (Gruenenthal GmbH, priority 2005, dated 2014)
# Where two headings read alike, the source gives them in different places.
# Key:
# [1] = system: formaldehyde induced nociceptive behaviour; assay: Formaldehyde test in mice, second (late) phase; format: in vivo, mouse; details: mouse; for inhibition in vivo at 1 mg/kg: 1 mg/kg body weight po
# [2] = molecular target: T1, vanilloid receptor 1 (VR1/TRPV1) of the rat species (Rattus norvegicus, UniProt O35433); assay: FLIPR Ca2+ influx assay on rat dorsal root ganglia cells (pharmacological method I); format: cell-based
# T1 construct: The spinal column is removed from decapitated rats; from tissue; host or cells: primary cells dissociated from rat dorsal root ganglia
# Procedure, shortened: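 Primary rat dorsal root ganglion cells loaded with 2 μM Fluo-4, Ca2+ influx read on FLIPR as peak fluorescence. Triplicates, at least 3 independent experiments.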
# [3] = molecular target: T2, vanilloid receptor (VR1) (Homo sapiens, UniProt Q8NER1); assay: FLIPR Ca2+ influx assay on CHO K1 cells transfected with the VR1 gene (pharmacological method II); format: cell-based
# T2 construct: expressed in transfected cells; host or cells: CHO K1 cells (ECACC), stably transfected
# [4] = molecular target: VR1/TRPV1 receptor (Homo sapiens, UniProt Q8NER1); assay: IC50 (human) after pH stimulus; format: cell-based
# [5] = system: capsaicin induced hypothermie; assay: Hypothermie assay in the mouse (capsaicin induced hypothermie); format: in vivo; details: mouse, read-out: inhibition hypothermie (n = 5); for inhibition in vivo at 0.3 mg/kg: 0.3 mg/kg body weight po
# Procedure: V. Hypothermie Assay an der Maus
# Male NMRI mice (weight 25-35 gram, supplier IFFA CREDO, Bruxelles, Belgium) are used in the hypothermie assay. The animals are kept under standardized conditions: light/darkness interval (6:00 to 18:00 light; 18:00 to 6:00 Uhr darkness), room temperature 19-22° C., relative humidity 35-70%, 15 times per hour change of compartment air, airflow <0.2 m/sec. The animals were fed on a standardized diet (ssniff diet, ssniff Spezialdiäten GmbH, Soest, Germany) and tap water. Water and diet were detracted during the experiment. All animals were used once in the experiment. The animals were allowed to adapt to the experimental conditions for at least 5 days.
# The acute application of capsaicin (VR-1 agonist) leads to a decrease of the core body temperature in rat and mice via stimulation of heat sensors. Only compounds which act as specific VR-1-receptor antagonists can antagonize the capsaicin induced hypothermie. In contrast, morphine induced hypothermie is not antagonized by VR-1 antagonists. Thus, this experiment is suitable for the determination of compounds that act as VR1-antagonists via their effect on the core body temperature.
# For the determination of the core body temperature a digital thermometer was used (Thermalert TH-5, physitemp, Clifton N.J., USA). The measuring head was inserted into the rectum.
# The individual basis value is determined by measuring the body temperature twice in an interval of about half an hour. […] […] The test compound is given 10 min (i.v.) or 15 min (p.o.), respectively, before application of capsaicin. The body temperature is determined 7.5/15 and 30 min after application of capsaicin (i.v.+i.p.) or 15/30/60/90/120 min after application of capsaicin (p.o.+i.p.), respectively. In addition, another group of mice is only given the test compound or a vehicle control.
# The measuring points are given as average values±S.E.M. of the absolute values. The antagonistic effect is given in percent of inhibition of capsaicin induced hypothermie.
# [6] = 0.3 mg/kg body weight po, read-out: inhibition formaldehyde test (n = 10)
# [7] = read-out: inhibition formaldehyde test (n = 10)
# [8] = Table 2, displacement of capsaicin (100 nM), Cheng-Prusoff, read-out: Ki (rat)
# [9] = Table 2, displacement of capsaicin (100 nM), Cheng-Prusoff, read-out: Ki (human)
# [10] = table 4, capsaicin, read-out: Ki (rat) Cap.
# [11] = table 4, capsaicin, read-out: Ki (human) Cap.
# T2 sequence (Q8NER1 whole entry): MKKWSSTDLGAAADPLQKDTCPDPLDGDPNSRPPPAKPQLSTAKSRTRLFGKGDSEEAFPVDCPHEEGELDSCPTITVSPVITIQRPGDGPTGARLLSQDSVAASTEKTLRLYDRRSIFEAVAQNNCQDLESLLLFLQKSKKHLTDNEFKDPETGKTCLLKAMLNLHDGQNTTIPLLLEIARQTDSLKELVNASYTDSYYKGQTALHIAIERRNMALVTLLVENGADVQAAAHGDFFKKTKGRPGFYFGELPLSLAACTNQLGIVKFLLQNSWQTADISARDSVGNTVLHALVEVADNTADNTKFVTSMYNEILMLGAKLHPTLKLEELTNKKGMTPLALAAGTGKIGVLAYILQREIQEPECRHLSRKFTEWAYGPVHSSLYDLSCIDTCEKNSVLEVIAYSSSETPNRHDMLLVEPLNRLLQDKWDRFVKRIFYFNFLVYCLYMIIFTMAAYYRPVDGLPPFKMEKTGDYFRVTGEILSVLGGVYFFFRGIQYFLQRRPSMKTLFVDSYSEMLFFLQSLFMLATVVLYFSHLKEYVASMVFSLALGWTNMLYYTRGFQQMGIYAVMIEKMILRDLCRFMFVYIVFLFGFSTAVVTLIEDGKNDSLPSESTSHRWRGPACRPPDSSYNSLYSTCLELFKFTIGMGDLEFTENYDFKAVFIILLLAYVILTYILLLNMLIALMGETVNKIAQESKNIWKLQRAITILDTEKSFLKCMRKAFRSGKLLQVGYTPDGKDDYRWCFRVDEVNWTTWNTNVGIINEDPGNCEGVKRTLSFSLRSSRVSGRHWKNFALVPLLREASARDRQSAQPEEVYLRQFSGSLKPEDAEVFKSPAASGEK
# VR1/TRPV1 receptor, sequence (Q8NER1 whole entry): as above
# T1 sequence (O35433 whole entry): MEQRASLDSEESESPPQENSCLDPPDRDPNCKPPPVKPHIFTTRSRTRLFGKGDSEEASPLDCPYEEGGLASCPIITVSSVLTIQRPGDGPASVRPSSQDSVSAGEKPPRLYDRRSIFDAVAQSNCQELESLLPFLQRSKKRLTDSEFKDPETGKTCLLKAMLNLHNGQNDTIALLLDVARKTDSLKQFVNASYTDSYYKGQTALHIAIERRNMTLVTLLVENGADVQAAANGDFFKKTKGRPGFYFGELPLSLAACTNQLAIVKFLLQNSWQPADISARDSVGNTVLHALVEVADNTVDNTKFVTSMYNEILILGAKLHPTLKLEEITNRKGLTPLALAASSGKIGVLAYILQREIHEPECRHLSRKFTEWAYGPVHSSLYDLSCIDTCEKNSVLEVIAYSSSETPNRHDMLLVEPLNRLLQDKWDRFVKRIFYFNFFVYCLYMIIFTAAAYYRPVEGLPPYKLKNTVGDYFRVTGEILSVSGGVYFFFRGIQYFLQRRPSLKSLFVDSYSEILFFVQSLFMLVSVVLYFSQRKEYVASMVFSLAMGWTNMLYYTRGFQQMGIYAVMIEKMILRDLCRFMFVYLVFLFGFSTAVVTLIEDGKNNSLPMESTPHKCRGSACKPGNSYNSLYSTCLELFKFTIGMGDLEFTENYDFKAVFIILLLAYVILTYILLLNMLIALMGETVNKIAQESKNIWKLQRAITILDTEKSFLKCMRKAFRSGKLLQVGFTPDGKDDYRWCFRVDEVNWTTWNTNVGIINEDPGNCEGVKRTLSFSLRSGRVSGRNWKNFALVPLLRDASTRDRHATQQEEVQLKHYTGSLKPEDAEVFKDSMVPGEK
structure (smiles),measurement,setting,value
CC(C(=O)NCc1ccc(C(F)(F)F)cc1N1CCCC1)c1ccc(NS(C)(=O)=O)c(F)c1 (stereo not shown) [Compound 34],inhibition in vivo at 0.3 mg/kg,[1]; [6],51%
CC(C(=O)NCc1ccc(C(F)(F)F)nc1-c1cccs1)c1ccc(NS(C)(=O)=O)c(F)c1 (stereo not shown) [Compound 88],inhibition in vivo at 1 mg/kg,[1]; [7],16%
CC(C(=O)NCc1ccc(C(F)(F)F)nc1NC1CCCCC1)c1ccc(NS(C)(=O)=O)c(F)c1 (stereo not shown) [Compound 90],inhibition in vivo at 1 mg/kg,[1]; [7],37%
CC(C(=O)NCc1ccc(C(F)(F)F)nc1N1CCCC1)c1ccc(NS(C)(=O)=O)c(Br)c1 (stereo not shown) [Compound 103],inhibition in vivo at 1 mg/kg,[1]; [7],50%
CCCCOc1cc(C(C)(C)C)ccc1CNC(=O)C(C)c1ccc(NS(C)(=O)=O)c(F)c1 (stereo not shown) [Compound 108],inhibition in vivo at 1 mg/kg,[1]; [7],24%
CC(C(=O)NCc1ccc(C(F)(F)F)nc1-c1ccc(C(C)(C)C)cc1)c1ccc(NS(C)(=O)=O)c(F)c1 (stereo not shown) [Compound 117],inhibition in vivo at 1 mg/kg,[1]; [7],41%
CC(C(=O)NCc1ccc(C(F)(F)F)nc1SC1CCCCC1)c1ccc(NS(C)(=O)=O)c(F)c1 (stereo not shown) [Compound 126],inhibition in vivo at 0.3 mg/kg,[1]; [6],69%
Cc1cc(C(C)C(=O)NCc2ccc(C(F)(F)F)nc2N2CCCCC2)ccc1NS(C)(=O)=O (stereo not shown) [Compound 127],inhibition in vivo at 1 mg/kg,[1]; [7],25%
CC(C(=S)NCc1ccc(C(F)(F)F)nc1N1CCCC1)c1ccc(NS(C)(=O)=O)c(F)c1 (stereo not shown) [Compound 129],inhibition in vivo at 1 mg/kg,[1]; [7],3%
CC(C(=S)NCc1ccc(C(F)(F)F)nc1-c1ccc(F)cc1)c1ccc(NS(C)(=O)=O)c(F)c1 (stereo not shown) [Compound 130],inhibition in vivo at 1 mg/kg,[1]; [7],55%
CC(C(=O)NCc1ccc(C(F)(F)F)nc1-c1cccc(F)c1)c1ccc(NS(C)(=O)=O)c(F)c1 (stereo not shown) [Compound 148],inhibition in vivo at 1 mg/kg,[1]; [7],46%
COC1CCN(c2nc(C(F)(F)F)ccc2CNC(=O)C(C)c2ccc(NS(C)(=O)=O)c(F)c2)CC1 (stereo not shown) [Compound 159],inhibition in vivo at 1 mg/kg,[1]; [7],14%
CCCCOC1CCN(c2nc(C(F)(F)F)ccc2CNC(=O)C(C)c2ccc(NS(C)(=O)=O)c(F)c2)CC1 (stereo not shown) [Compound 160],inhibition in vivo at 1 mg/kg,[1]; [7],14%
CC(C(=O)NCc1ccc(C(F)(F)F)nc1N1CCC(N2CCCC2)CC1)c1ccc(NS(C)(=O)=O)c(F)c1 (stereo not shown) [Compound 165],inhibition in vivo at 1 mg/kg,[1]; [7],15%
same,inhibition at 10 µM,"[2]; @ 10 μM, read-out: inhibition in percent, Ki (rat) Cap.",4%
same,inhibition at 10 µM,"[3]; CHO-K1, @ 10 μM, read-out: inhibition in percent, Ki (human) Cap.",0.5%
CC(C(=O)NCc1ccc(C(F)(F)Cl)nc1OC1CCCC1)c1ccc(NS(C)(=O)=O)c(F)c1 (stereo not shown) [Compound 166],inhibition in vivo at 1 mg/kg,[1]; [7],72%
CCCCN(C)c1nc(C(F)(F)F)ccc1CNC(=O)C(C)c1ccc(NS(C)(=O)=O)c(F)c1 (stereo not shown) [Compound 167],inhibition in vivo at 0.3 mg/kg,[1]; [6],56%
CCC1CCC(Oc2nc(C(F)(F)F)ccc2CNC(=O)C(C)c2ccc(NS(C)(=O)=O)c(F)c2)CC1 (stereo not shown) [Compound 171],inhibition in vivo at 1 mg/kg,[1]; [7],46%
CC(C(=O)NCc1ccc(C(F)(F)F)cc1N1CCCCCC1)c1ccc(NS(C)(=O)=O)c(F)c1 (stereo not shown) [Compound 174],inhibition in vivo at 1 mg/kg,[1]; [7],49%
CC(C(=O)NCc1ccc(C(F)(F)F)nc1OCc1ccncc1)c1ccc(NS(C)(=O)=O)c(F)c1 (stereo not shown) [Compound 177],inhibition in vivo at 1 mg/kg,[1]; [7],24%
same,inhibition at 0.1 µM,"[2]; read-out: inhibition in percent, Ki (rat) Cap.",9%
CC(C(=O)NCc1ccc(C(F)(F)F)nc1OCCc1ccccc1)c1ccc(NS(C)(=O)=O)c(F)c1 (stereo not shown) [Compound 178],inhibition in vivo at 1 mg/kg,[1]; [7],28%
CC(C(=O)NCc1ccc(C(F)(F)F)nc1N1CCN(c2ccc(F)cc2)CC1)c1ccc(NS(C)(=O)=O)c(F)c1 (stereo not shown) [Compound 179],inhibition in vivo at 1 mg/kg,[1]; [7],22%
CC(C(=O)NCc1ccc(C(F)(F)Cl)nc1OCc1ccccn1)c1ccc(NS(C)(=O)=O)c(F)c1 (stereo not shown) [Compound 182],inhibition in vivo at 1 mg/kg,[1]; [7],8%
"CC(C(=O)NCc1ccc(C(F)(F)F)cc1N1CCCC1)c1ccc(NS(C)(=O)=O)c(F)c1 (stereo not shown) [Example 34, 2-(3-fluoro-4-(methylsulfonamido)phenyl)-N-(2-(pyrrolidin-1-yl)-4-(trifluoromethyl)benzyl)propanamide]",inhibition in vivo at 0.1 mg/kg,"[1]; 0.1 mg/kg body weight po, read-out: inhibition formaldehyde test (n = 10)",6%
same,IC50,[4]; Table 2,121 nM
same,Ki,[2]; [8],2.5 nM
same,Ki,[3]; [9],2.3 nM
"CC(C(=O)NCc1ccc(C(F)(F)Cl)nc1N1CCCCC1)c1ccc(NS(C)(=O)=O)c(F)c1 (stereo not shown) [Example 71, N-((6-(chlorodiflouromethyl)-2-(piperidin-1-yl)pyridin-3-yl)methyl)-2-(3-fluoro-(4-methylsulfonamido)phenyl)propanamide]",inhibition formaldehyde test (n = 10),[1]; 0.3 mg/kg body weight po,0.3 po 0%
same,IC50,[4]; Table 2,22.4 nM
same,Ki,[2]; [8],0.8 nM
same,Ki,[3]; [9],1.3 nM
CC(C(=O)NCc1ccc(C(F)(F)F)nc1OC1CCCCC1)c1ccc(NS(C)(=O)=O)c(F)c1 (stereo not shown) [Example 76],inhibition in vivo at 0.3 mg/kg,[1]; [6],12%
same,IC50,[4]; Table 2,43.4 nM
same,Ki,"[2]; Ki (rat), Table 2, displacement of capsaicin (100 nM), Cheng-Prusoff",1.5 nM
same,Ki,[3]; [9],1.3 nM
"CCCCOc1nc(C(F)(F)Cl)ccc1CNC(=O)C(C)c1ccc(NS(C)(=O)=O)c(F)c1 (stereo not shown) [Example 140, N-[2-butoxy-6-(chlor-difluor-methyl)-pyridin-3-ylmethyl]-2-(3-fluoro-4-methylsulfonamido-phenyl)-propionamide]",inhibition formaldehyde test (n = 10),[1]; 0.1 mg/kg body weight po,0.1 po 56%
same,IC50,[4]; table 4,9.2 nM
same,Ki,[2]; [10],0.4 nM
same,Ki,[3]; [11],0.7 nM
"CC(C(=O)NCc1ccc(C(F)(F)F)nc1-c1ccccc1F)c1ccc(NS(C)(=O)=O)c(F)c1 (stereo not shown) [Example 150, 2-(3-fluoro-4-methylsulfonamido-phenyl)-N-[2-(2-fluoro-phenyl)-6-trifluoromethyl-pyridin-3-ylmethyl]-propionamide]",inhibition in vivo at 0.3 mg/kg,[1]; [6],17%
same,IC50,[4]; table 4,1320 nM
same,Ki,[2]; [10],22.4 nM
same,Ki,[3]; [11],63.3 nM
"CC(C(=O)NCc1ccc(C(F)(F)F)cc1OCc1ccccc1)c1ccc(NS(C)(=O)=O)c(F)c1 (stereo not shown) [Example 209, N-(2-benzyloxy-4-trifluoromethyl-benzyl)-2-(3-fluoro-4-methylsulfonamido-phenyl)-propionamide]",inhibition in vivo at 3 mg/kg,[5]; 3 mg/kg body weight po,46%
same,IC50,[4]; table 4,34.9 nM
same,Ki,[2]; [10],0.2 nM
same,Ki,[3]; [11],0.9 nM
CC(C(=O)NCc1ccc(C(F)(F)F)cc1N1CCN(c2ccccc2)CC1)c1ccc(NS(C)(=O)=O)c(F)c1 (stereo not shown) [Example 216],inhibition in vivo at 0.3 mg/kg,[5],4%
same,IC50,[4]; table 4,64.7 nM
same,Ki,[2]; [10],0.5 nM
same,Ki,[3]; [11],2 nM
"COc1ccc(N2CCN(c3nc(C(F)(F)F)ccc3CNC(=O)C(C)c3ccc(NS(C)(=O)=O)c(F)c3)CC2)cc1 (stereo not shown) [Example 221, 2-(3-fluoro-4-methylsulfonamido-phenyl)-N-{2-[4-(4-methoxy-phenyl)-piperazin-1-yl]-6-trifluoromethyl-pyridin-3-ylmethyl}-propionamide]",inhibition in vivo at 0.3 mg/kg,[5],18%
same,IC50,[4]; table 4,44.5 nM
same,Ki,[2]; [10],1.9 nM
same,Ki,[3]; [11],2.5 nM
"CCCCCOc1nc(C(F)(F)F)ccc1CNC(=O)C(C)c1ccc(NS(C)(=O)=O)c(F)c1 (stereo not shown) [Example 225, 2-(3-fluoro-4-methylsulfonamido-phenyl)-N-(2-pentyloxy-6-trifluoromethyl-pyridin-3-ylmethyl)-propionamide]",inhibition in vivo at 0.3 mg/kg,[5],20%
same,IC50,[4]; table 4,27.3 nM
same,Ki,[2]; [10],0.5 nM
same,Ki,[3]; [11],0.7 nM
